Read-outs that look alike come from different tables or passages of the source. Where no end group is shown, it is not given here. [ ]: non-standard residue; d: D form. Hyp = O=C(O)[C@@H]1C[C@@H](O)CN1
What was measured:
AmP and ACE = test: Mean systemic arterial blood pressure effects of BK injected i.v. or i.a. (log dose-response curves)
Procedure: To the extent that pulmonary AmP contributes to BK inactivation, saturation of AmP with an inhibitor or alternative substrate should, in effect, potentiate blood pressure effects of i.v. BK.
To clarify relative contributions of ACE and AmP to the metabolic fate of BK administered i.v., blood pressure effects of i.v. BK under control conditions and then after administration of a long-acting ACE inhibitor, RAC-X-65, were compared. After ACE inhibition, BK was injected (i.v. and i.a.) alone or BK co-mixed with APPBz at a dose capable of saturating AmP (2 μmol/kg).

AmP = conditions: cited from earlier work
Pig kidney AmP = biological target: T1, Pig kidney AmP (Sus scrofa, UniProt Q95333); conditions: concentration that derivatizes two H residues per molecule of AmP; cited from earlier work
T1 construct: host or cells: pig kidney
T1 sequence (Q95333 22-649): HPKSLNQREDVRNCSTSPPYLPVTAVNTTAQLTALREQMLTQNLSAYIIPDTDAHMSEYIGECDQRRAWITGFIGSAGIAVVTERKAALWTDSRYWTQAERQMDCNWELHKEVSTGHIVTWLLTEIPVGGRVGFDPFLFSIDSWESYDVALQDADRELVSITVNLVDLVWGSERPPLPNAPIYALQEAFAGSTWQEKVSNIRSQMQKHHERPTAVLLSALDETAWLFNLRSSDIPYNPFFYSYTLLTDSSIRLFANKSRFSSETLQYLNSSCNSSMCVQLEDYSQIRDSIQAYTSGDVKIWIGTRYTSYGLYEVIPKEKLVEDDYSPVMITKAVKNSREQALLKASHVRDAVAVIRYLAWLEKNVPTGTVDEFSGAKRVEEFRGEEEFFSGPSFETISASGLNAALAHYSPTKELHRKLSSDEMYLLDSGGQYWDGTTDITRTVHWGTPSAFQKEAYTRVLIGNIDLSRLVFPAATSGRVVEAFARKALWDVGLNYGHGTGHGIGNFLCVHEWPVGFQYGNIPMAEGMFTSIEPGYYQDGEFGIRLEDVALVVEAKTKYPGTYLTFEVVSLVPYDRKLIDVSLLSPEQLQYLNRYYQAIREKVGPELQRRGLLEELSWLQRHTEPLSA

[1] = biological target: rat lung aminopeptidase P (rat) (UniProt Q99MA2); test: cell-based or functional assay
guinea pig serum AmP = conditions: in vitro; cited from earlier work
[2] = biological target: T2, pulmonary endothelial AmP (Rattus norvegicus, UniProt Q99MA2); test: in vivo; conditions: read-out: ED50: coinjected dose that reduces hydrolysis of APPBz-3H by half
T2 sequence (Q99MA2 23-650): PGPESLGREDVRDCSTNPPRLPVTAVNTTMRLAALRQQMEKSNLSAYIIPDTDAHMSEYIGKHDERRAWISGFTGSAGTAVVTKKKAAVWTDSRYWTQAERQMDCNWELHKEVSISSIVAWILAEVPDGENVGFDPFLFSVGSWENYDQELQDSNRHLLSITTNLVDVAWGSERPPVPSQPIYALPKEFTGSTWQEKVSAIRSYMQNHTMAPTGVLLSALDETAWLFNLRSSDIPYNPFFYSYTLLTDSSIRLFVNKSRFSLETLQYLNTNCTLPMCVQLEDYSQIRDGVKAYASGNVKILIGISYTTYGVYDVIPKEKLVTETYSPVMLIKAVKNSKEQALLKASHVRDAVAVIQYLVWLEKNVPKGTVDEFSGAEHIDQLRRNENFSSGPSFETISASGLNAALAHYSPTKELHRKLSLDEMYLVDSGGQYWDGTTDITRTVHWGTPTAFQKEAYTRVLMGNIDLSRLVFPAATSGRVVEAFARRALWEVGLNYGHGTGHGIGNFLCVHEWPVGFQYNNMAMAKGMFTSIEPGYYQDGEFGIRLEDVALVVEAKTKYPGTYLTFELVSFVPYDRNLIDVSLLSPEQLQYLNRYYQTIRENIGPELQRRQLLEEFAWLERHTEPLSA
Procedure: (§1) The immediate metabolic fate of the AmP synthetic substrate Arg-Pro-Pro-[^3H]benzylamide (APPBz-^3H) (20 Ci/mmol) during a single transit from the right heart to the left was examined. Effects of increasing quantities of carrier APPBz and alternative AmP substrates such as bradykinin (BK) and des-Arg^9-BK (31) were then measured.

[3] = 2-3 sec, right to left side of the heart; cited from earlier work
[4] = biological target: T2, pulmonary endothelial AmP; conditions: coinjected with tracer APPBz-3H
Procedure: as §1

C[C@H](N[C@@H](CCC(=O)Nc1ccccc1)C(=O)O)C(=O)N1CCC[C@H]1C(=O)O (racemic) [RAC-X-65]
factor by which i.v. BK curves lay to the right of i.a. curves after ACE inhibition (AmP and ACE; after ACE inhibition): about four | effect of ACE inhibition on BK log dose-response curves (AmP and ACE; long-acting ACE inhibitor, BK i.v. and i.a.): shifted both i.v. and i.a. log dose-response curves leftward

CCN1C(=O)C=CC1=O [N-ethylmaleimide]
inhibition of AmP (AmP): not inhibited

CCOC(=O)OC(=O)OCC [diethylpyrocarbonate]
inactivation of pig kidney AmP (Pig kidney AmP): completely inactivated

NC(=O)CI [iodoacetamide]
inhibition of AmP (AmP): not inhibited

O=C(O)c1cc[c]([Hg+])cc1.[OH-] [p-hydroxy-mercuribenzoate]
inhibition of AmP (AmP; low concentration (~10 nM)): ~70%

Arg-Pro-Pro-benzylamide (peptide)
dose that completely inhibits the hydrolysis of coinjected APPBz-^3H [1]: 2 µmol/kg | dose that reduces by half the fractional hydrolysis of coinjected APPBz-^3H in a single pulmonary transit in vivo [1]: 42 nmol/kg b.w.

Gly-Pro-Hyp-Gly-Ala-Gly (GP[Hyp]GAG) [AAP, putative hormone called antiarrhythmic peptide]
binding of AAP by AmP (guinea pig serum AmP): high affinity

RPPGFSPFR [BK, Arg-Pro-Pro-Gly-Phe-Ser-Pro-Phe-Arg]
degradation of BK by AmP alone (AmP and ACE; computed from 4-fold potentiation, PF=2^n, less than three sec): 75% | ED50 [2]: 0.013 µmol/kg | number of half-lifes BK is degraded through in a single transit [3]: 5-8 half-lifes

bradykinin (peptide)
dose that reduces by half the hydrolysis of coinjected APPBz-^3H in vivo [1]: 13 nmol/kg

des-Arg^1-BK: BK fragment formed by AmP; not a substrate but binds to the catalytic site (PPGFSPFR)
ED50: coinjected dose that reduces hydrolysis of APPBz-3H by half [4]: 30 nmol/kg | affinity for AmP relative to BK (AmP): as great an affinity for AmP as BK itself

des-Arg^9-BK: alternative AmP substrate, bradykinin lacking Arg9 (RPPGFSPF)
ED50: coinjected dose that reduces hydrolysis of APPBz-3H by half [4]: 107 nmol/kg

des-Arg^9-bradykinin (peptide)
ED50 for inhibition of the hydrolysis of coinjected APPBz-^3H in vivo [1]: 107 nmol/kg
